{"source": "paper PMC12117998", "about": "“First Steps toward the Design of Peptides that Influence the Intracellular Palmitoylation Machinery” (Chembiochem, 2025)", "key": {"[1]": {"test_system": "HeLa cells", "experiment": "Cell viability assay (resazurin)", "assay_type": "cell-based", "details": "24 h, CF‐labeled peptides, n = 3 (Figure 3A)", "method": "(§1) HeLa (13,000), MDA‐MB‐231 (26,000), HFF‐1 (16,000) cells, mEGFP‐HRas (18,000), and SW480 and SW620 (15,000) were seeded into a 96‐well plate. Cells were treated with suitable peptide concentrations diluted in the corresponding serum‐free culture medium. After 24 h incubation under standard growth conditions, the cells were washed once with PBS. The positive control was treated for 10 min with 70% EtOH. To test the viability, cells were treated with a resazurin solution (In Vitro Toxicology Assay Kit, resazurin based, Sigma) and incubated for a further 1–2 h. The product resorufin was measured at 595 nm (λex = 550 nm) on an infinite M200 plate reader (Tecan) and normalized to the untreated negative control cells."}, "[2]": {"test_system": "HeLa mEGFP‐HRas cells", "experiment": "Cell viability assay (resazurin)", "assay_type": "cell-based", "details": "24 h, n = 3 (Figure S11A)", "method": "as §1"}, "[3]": {"test_system": "MDA‐MB‐231", "experiment": "Cell viability assay (resazurin)", "assay_type": "cell-based", "details": "MDA‐MB‐231, 24 h, CF‐labeled peptides, n = 3 (Figure 3B)", "method": "as §1"}, "[4]": {"molecular_target": "T1, human 6His‐ZDHHC7 (Homo sapiens, UniProt Q9NXF8)", "T1 construct": "6His; purchased Proteintech", "T1 sequence (Q9NXF8 1-308)": "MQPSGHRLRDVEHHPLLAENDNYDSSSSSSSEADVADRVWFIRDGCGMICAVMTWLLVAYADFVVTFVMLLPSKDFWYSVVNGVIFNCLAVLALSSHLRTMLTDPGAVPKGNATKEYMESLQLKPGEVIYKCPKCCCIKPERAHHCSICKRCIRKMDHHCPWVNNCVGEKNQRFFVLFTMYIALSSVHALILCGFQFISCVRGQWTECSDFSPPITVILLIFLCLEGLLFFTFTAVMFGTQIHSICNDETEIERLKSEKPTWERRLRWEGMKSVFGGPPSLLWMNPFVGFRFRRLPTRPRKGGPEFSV", "experiment": "In vitro palmitoylation assay (LC‐MS)", "assay_type": "biochemical", "details": "50 μM CF‐labeled peptide, 37 °C, LC‐MS (Figure 4)", "method": "The 50 μM CF‐labeled peptides were incubated with 100 nM human 6His‐ZDHHC7 (Proteintech) and 100 μM palmitoyl‐CoA (Santa Cruz Biotechnology) in reaction buffer (50 mM HEPES, 150 mM NaCl, 1 mM EDTA, 1 mM (tris(2‐carboxyethyl)phosphine) (TCEP), 0.3 mM DDM, pH 7.0) for 2 h at 37 °C. Control reactions without ZDHHC7 or palm‐CoA were incubated with the appropriate volume of reaction buffer. Afterward, the reaction was centrifuged for 5 min at 13000 rpm. The precipitate was dissolved in DMSO/ACN (3:2, v/v). To enrich the peptide from the supernatant, C8 ZipTips were used. All samples were analyzed on the LC MS‐8060 triple quadrupole ESI‐MS (Shimadzu). The fluorescence intensity (λex = 493 nm, λem = 517 nm) of the samples was measured on an EC 160/2 NUCLEODUR 300‐5 C18 ec column using linear gradients from 20% to 70 % ACN in ddH2O + 0.1% FA over 7 min."}, "[5]": {"experiment": "Peptide incubation in media and identification of peptide species (LC-MS)", "assay_type": "physicochemical", "method": "Hela cells (15,000) were seeded into a 96-well plate. Cells were treated with suitable peptide concentrations diluted in the corresponding serum-free culture medium. After 1 h peptide incubation under standard growth conditions, the positive control was either directly treated with lysis solution or the supernatant was exchanged for serum-free culture medium and the plate was incubated for further 5 h under growing conditions. The CytoTox-ONE™ Reagent was added and incubated at RT for 10 minutes. Finally, the Stop Solution was added and the fluorescence was measured at 595 nm (λex = 550 nm) on an infinite M200 plate reader (Tecan) and normalized to the positive control cells.\nRed blood cells (RBCs) were washed three times in PBS by centrifug ing at 4 °C and 3,000 x g for 5 min and diluted to 5% in PBS. The desired peptide concentrations diluted in PBS were added into a 96-well plate. Next, 5% RBCs in PBS were added into the wells and incubated for 24 h at 37 °C and 5% CO2. As a positive control, RBCs were mixed with 10% Triton X-100 in PBS. After the incubation time was completed, the plate was centrifuged at 2,500 x g for 3 min at RT and 100 μL of the supernatant was transferred into a fresh 96 -well plate. Lastly, the absorption (λ=560 nm) was measured on the infinite M200 plate reader (Tecan). For the evaluation, the measured absorption of the Triton-X-100 treatment was set to a hemolysis rate […]\n30,000 HeLa cells were seeded into an 8-well. Cells were stained for 10 min with the Hoechst 33342 nuclear dye and transferred to the microscope UltraView VoX Spinning Disk Confocal Microscope (Perkin Elmer). 5 µM CF-DC-2 were added to the cells. Cells were imaged on a Plan-Apo Tirf 60X oil objective (NA 1.49, Nikon) at 37°C a nd 5% CO2. […]\nmixed with 5 µl TFA. […] Finally, the different peptide species were analyzed by analytical HPLC ESI-MS (LTQ XL, Thermo Scientific) using a gradient of 10% to 60% of acetonitrile (ACN) in ddH2O + 0.1% formic acid (FA) on an Aeris 3.6 µm PEPTIDE XB-C18 100 LC column (Phenomenex)."}}, "note": "No end group written: not given here."}
{"substance": "GLRKRLRKFRNKKMDHHCPW-NH2 [DC‐2, CPP sC18* fused to the DHHC motif derived from ZDHHC2/3/6/7/15/16/20]", "values": [{"measurement": "cytotoxicity (cell viability)", "setting": "[1]", "result": "most active peptide"}, {"measurement": "cytotoxicity at 100 μM", "setting": "[2]", "result": "did not harm the cells"}, {"measurement": "cytotoxicity (cell viability)", "setting": "[3]", "result": "most active peptide"}, {"measurement": "palmitoylation in presence of ZDHHC7", "setting": "[4]; 100 nM ZDHHC7, 100 μM palmitoyl‐CoA, pH 7.0, 2 h", "result": "palmitoylated"}, {"measurement": "palmitoylation in absence of ZDHHC7 (auto‐palmitoylation)", "setting": "[4]; 100 μM palmitoyl‐CoA, no ZDHHC7, pH 7.0, 2 h", "result": "auto‐palmitoylation"}, {"measurement": "peptide species observed in medium lacking L‐cystine", "setting": "[5]; 5 µM CF-DC-2 in serum-free medium lacking L-cystine and L-methionine, LC‐MS (Figure S8A)", "result": "mostly reduced peptide was observed"}, {"measurement": "peptide species observed in normal cell culture medium", "setting": "[5]; 5 µM CF-DC-2 in serum-free medium, before addition to HeLa cells and after 30 min at 37 °C, LC‐MS, Δmass = +119 Da (Figure S8A)", "result": "S‐cysteinylation at the cysteine"}, {"measurement": "disulfide dimer formation in normal cell culture medium", "setting": "[5]; 5 µM CF-DC-2 in serum-free medium, before addition to HeLa cells or after 30 min at 37 °C, LC‐MS (Figure S8A)", "result": "did not observe the disulfide dimer"}]}
